pIC50: −log10 of the molar value. Like-named read-outs stand apart in the source and are kept apart here. One block for each molecule: values may come before it.
Assays:
androgen receptor (AR) = target: T1, androgen receptor (AR) (Homo sapiens, UniProt P10275, T878A); assay: eGFP cellular AR transcription assay; assay type: cell-based
T1 construct: stably transfected eGFP-expressing LNCaP human prostate cancer cells (LN-ARR2PB-eGFP) containing an androgen responsive probasin-derived promoter; endogenous in cells; host or cells: LNCaP (LN-ARR2PB-eGFP)
T1 sequence (P10275 1-920 T878A): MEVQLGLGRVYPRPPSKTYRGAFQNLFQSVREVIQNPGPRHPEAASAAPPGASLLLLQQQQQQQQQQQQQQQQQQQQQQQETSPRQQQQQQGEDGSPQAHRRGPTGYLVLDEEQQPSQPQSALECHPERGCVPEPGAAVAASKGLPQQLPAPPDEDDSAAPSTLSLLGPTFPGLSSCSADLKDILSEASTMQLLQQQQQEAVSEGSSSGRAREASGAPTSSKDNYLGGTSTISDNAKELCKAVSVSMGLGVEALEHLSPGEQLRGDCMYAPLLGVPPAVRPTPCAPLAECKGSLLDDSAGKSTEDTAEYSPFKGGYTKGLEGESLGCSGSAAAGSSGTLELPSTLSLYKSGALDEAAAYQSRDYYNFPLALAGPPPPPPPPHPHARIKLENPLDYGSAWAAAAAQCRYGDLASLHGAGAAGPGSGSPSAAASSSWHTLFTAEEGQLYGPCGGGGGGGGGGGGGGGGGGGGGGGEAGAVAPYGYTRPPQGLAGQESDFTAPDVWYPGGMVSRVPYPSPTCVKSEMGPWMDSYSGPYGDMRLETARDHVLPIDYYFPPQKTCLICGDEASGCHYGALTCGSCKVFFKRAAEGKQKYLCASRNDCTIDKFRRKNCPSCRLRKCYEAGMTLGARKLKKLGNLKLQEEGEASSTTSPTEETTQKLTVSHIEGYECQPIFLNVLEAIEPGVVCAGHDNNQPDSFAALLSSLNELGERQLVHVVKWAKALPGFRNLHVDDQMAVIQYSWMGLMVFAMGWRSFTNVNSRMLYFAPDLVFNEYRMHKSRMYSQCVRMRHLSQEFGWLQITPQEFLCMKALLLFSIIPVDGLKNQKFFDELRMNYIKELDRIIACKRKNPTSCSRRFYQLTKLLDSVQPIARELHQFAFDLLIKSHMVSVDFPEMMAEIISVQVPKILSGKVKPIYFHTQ
Experimental: After 5 days, the cells were plated into a 96-well plate (35,000 cells/well) with 0.1 nM of the synthetic androgen R1881 and increasing concentrations (0-100 μM) of compound.
After 5 days, the cells were plated into a 96-well plate (35,000 cells/well) with 0.1 nM R1881 and increasing concentrations (0-100 μM) of compound.
In this assay, the expression of eGFP is under the control of an androgen responsive probasin-derived promoter and can quantify AR transcriptional activity.

PSA = assay: Prostate Surface Antigen (PSA) assay, PSA excreted into the media; assay type: cell-based, human; conditions: same plates as eGFP assay
Experimental: The evaluation of PSA excreted into the media was performed in parallel to the eGFP assay using the same plates (see above description). After the cells were incubated for 3 days 150 μl of the media was taken from each well, and added to 150 μl of PBS.

[1] = LN-ARR2PB-eGFP LNCaP cells, 0.1 nM R1881, 3 days, 0-100 μM compound, read-out: IC50 (eGFP)
[2] = Homo sapiens, 72 h, media after 3 days, read-out: IC50 (PSA)
[3] = LN-ARR2PBeGFP LNCaP cells, 0.1 nM R1881, 3 days incubation, read-out: eGFP IC50
[4] = Homo sapiens, 72 h, PSA excreted into media, 3 days incubation, read-out: PSA IC50
[5] = LN-ARR2PBeGFP LNCaP cells, 0.1 nM R1881, 3 days incubation
[6] = PSA excreted into media, 3 days incubation

- pIC50 (androgen receptor (AR); [1]): 6.70
- pIC50 (PSA; [2]): 6.64
Structure (SMILES): CCc1cccc2c(-c3ccc4ccccc4n3)c[nH]c12 [13 567]

- pIC50 (androgen receptor (AR); [1]): 5.96
- pIC50 (PSA; [2]): 6.03
Structure (SMILES): c1ccc2nc(-c3c[nH]c4cnccc34)ccc2c1 [13 583]

- pIC50 (androgen receptor (AR); [3]): 5.43
- pIC50 (PSA; [4]): 5.45
Structure (SMILES): Cc1[nH]c2ccccc2c1/N=N/c1ccccc1C(F)(F)F [Compound 13424]

Structure (SMILES): O=[N+]([O-])c1cccc2nc(-c3c[nH]c4c(F)cc(F)cc34)ccc12 [Compound 13670]
- eGFP IC50 (androgen receptor (AR); [5]): Inactive
- PSA IC50 (PSA; [6]): Inactive

- pIC50 (androgen receptor (AR); [3]): 7.16
- pIC50 (PSA; [4]): 7.17
Structure (SMILES): Fc1cccc2ccc(-c3c[nH]c4ccccc34)nc12 [Compound 13688]

- pIC50 (androgen receptor (AR); [3]): 5.90
- pIC50 (PSA; [4]): 6.03
Structure (SMILES): Cc1ccc(C)c2c(-c3ccc4ccccc4n3)c[nH]c12 [Compound 13600]

Structure (SMILES): Fc1ccc2ccc(Cl)nc2c1 [Compound 13728]
- eGFP IC50 (androgen receptor (AR); [5]): Inactive
- PSA IC50 (PSA; [6]): Inactive

- pIC50 (androgen receptor (AR); [3]): 6.05
- pIC50 (PSA; PSA excreted into media, 3 days incubation, read-out: PSA IC50): 5.91
Structure (SMILES): Cc1ccccc1CSc1c(C)[nH]c2ccccc12 [Compound 13412]

- pIC50 (androgen receptor (AR); [1]): 5.46
- pIC50 (PSA; [2]): 5.87
Structure (SMILES): Cc1cccc2cnn(-c3ccc4ccccc4n3)c12 [13 575]

- pIC50 (androgen receptor (AR); [3]): 6.70
- pIC50 (PSA; [4]): 7.05
Structure (SMILES): CNC(=O)c1cccc2nc(-c3c[nH]c4c(C)c(F)c(F)cc34)ccc12 [Compound 13771]

- pIC50 (androgen receptor (AR); [3]): 6.58
- pIC50 (PSA; [4]): 6.61
Structure (SMILES): CNC(=O)c1cccc2nc(-c3c[nH]c4cc(F)c(F)cc34)ccc12 [Compound 13645]

- pIC50 (androgen receptor (AR); [3]): 6.46
- pIC50 (PSA; [4]): 6.77
Structure (SMILES): Cc1cc(F)cc2c(-c3ccc4ccc(F)cc4n3)n[nH]c12 [Compound 13704]

Structure (SMILES): Fc1cc(F)c2[nH]ccc2c1 [Compound 13723]
- eGFP IC50 (androgen receptor (AR); [5]): Inactive
- PSA IC50 (PSA; [6]): Inactive

Structure (SMILES): O=[N+]([O-])c1cccc2nc(-c3c[nH]c4c(Cl)cccc34)ccc12 [Compound 13711]
- eGFP IC50 (androgen receptor (AR); [5]): Inactive
- PSA IC50 (PSA; [6]): Inactive

Structure (SMILES): O=C(O)c1cccc2nc(-c3c[nH]c4c(Cl)cc(F)cc34)ccc12 [Compound 13673]
- eGFP IC50 (androgen receptor (AR); [5]): Inactive
- PSA IC50 (PSA; [6]): Inactive

- pIC50 (androgen receptor (AR); [3]): 5.57
- pIC50 (PSA; [4]): 5.63
Structure (SMILES): Cc1[nH]c2ccccc2c1SCc1ccccc1 [Compound 13416]

Structure (SMILES): Fc1cc(Cl)c2[nH]cc(-c3ccc4c(F)cccc4n3)c2c1 [Compound 13668]
- eGFP IC50 (androgen receptor (AR); [5]): Inactive
- PSA IC50 (PSA; [6]): Inactive

- pIC50 (androgen receptor (AR); [1]): 6.52
- pIC50 (PSA; [2]): 6.57
Structure (SMILES): Cc1cccc2c(-c3ccc4ocnc4c3)c[nH]c12 [13 759]

- pIC50 (androgen receptor (AR); [3]): 5.49
- pIC50 (PSA; [4]): 5.76
Structure (SMILES): Cc1ccc2[nH]cc(-c3ccc4ccccc4n3)c2c1 [Compound 13577]

- pIC50 (androgen receptor (AR); [1]): 6.15
- pIC50 (PSA; [2]): 6.09
Structure (SMILES): CC1(C)C(c2c[nH]c3ncccc23)=Nc2ccccc21 [13 537]

- pIC50 (androgen receptor (AR); [3]): 6.52
- pIC50 (PSA; [4]): 6.60
Structure (SMILES): FC(F)(F)c1ccccc1/N=N/c1c[nH]c2ccccc12 [Compound 13259]

- pIC50 (androgen receptor (AR); [3]): 6.75
- pIC50 (PSA; [4]): 6.65
Structure (SMILES): Cc1c(F)ccc2c(-c3ccc4ccc(F)cc4n3)c[nH]c12 [Compound 13646]

Structure (SMILES): Fc1cc(Cl)c2[nH]cc(-c3ccc4c(Cl)cccc4n3)c2c1 [Compound 13669]
- eGFP IC50 (androgen receptor (AR); [5]): Inactive
- PSA IC50 (PSA; [6]): Inactive

- pIC50 (androgen receptor (AR); [3]): 6.78
- pIC50 (PSA; [4]): 7.00
Structure (SMILES): Cc1cc(-c2c[nH]c3c(C)cccc23)nc2ccccc12 [Compound 13594]

- pIC50 (androgen receptor (AR); [3]): 6.00
- pIC50 (PSA; [4]): 6.02
Structure (SMILES): FC(F)(F)c1ccccc1-c1c[nH]c2ccccc12 [Compound 13745]

- pIC50 (androgen receptor (AR); [1]): 6.10
- pIC50 (PSA; [2]): 5.90
Structure (SMILES): c1ccc2c(c1)NC(c1c[nH]c3ccccc13)C21CCCCC1 (stereo not drawn) [13 534]

Structure (SMILES): Cc1ccc2nc(-n3ccc4cccc(C)c43)ccc2c1 [Compound 13647]
- eGFP IC50 (androgen receptor (AR); [5]): Inactive
- PSA IC50 (PSA; [6]): Inactive

Reference: US10633338B2, “Binding Function 3 (BF3) site compounds as therapeutics and methods for their use” (THE UNIVERSITY OF BRITISH COLUMBIA, priority 2014, dated 2020)
